Laboratory results as given in patent publication US12714681B2, “Packaged, sealed container system for stable storage of an oxygen sensitive pharmaceutical formulation” (Baxter International Inc., priority 2020, dated 2026).

Tests used:
[1] = system: various receptors; conditions: R-isomer compared with S-isomer; cited from earlier work
[2] = Exploration of parameters: stability of norepinephrine formulations in 0.9% sodium chloride pre and post terminal sterilization; type: physicochemical
Experimental: Formulation parameters, such as antioxidant concentration and solution pH, were evaluated. Lab-scale batches were prepared and filled into containers through cut corners (resealed). Containers were subsequently vacuum sealed into overpouches. All formulations were prepared in 0.9% sodium chloride. Oxygen levels were controlled by preparing samples within a glove box under N2 atmosphere. Replicates were tested pre and post sterilization. Runs were evaluated by O2 content (head space and solution), pH, concentration of analyte and related compounds, enantiomeric purity, amount of antioxidant, and “visual inspection.”
Nineteen formulations were prepared in accordance with the table above.

[3] = cited from earlier work

| Compound | affinity to various receptors / pharmaceutical activity [1] | rate of epimerization to the S-isomer ([2]; higher pH values) | rate of norepinephrine oxidation ([2]; lower pH values) | solubility in acidic solutions ([3]; acidic solutions) | solubility in alcohols and ethers ([3]; alcohols and ethers) | solubility in water ([3]; water) |
| --- | --- | --- | --- | --- | --- | --- |
| NC[C@H](O)c1ccc(O)c(O)c1 (single isomer, unassigned) [R-isomer] | higher affinity |  |  |  |  |  |
| NC[C@@H](O)c1ccc(O)c(O)c1 (single isomer, unassigned) [S-isomer] | negligible pharmaceutical activity |  |  |  |  |  |
| NC[C@H](O)c1ccc(O)c(O)c1 [norepinephrine] |  | decreased the rate of epimerization to the S-isomer | decreased the rate of norepinephrine oxidation | readily soluble | slightly soluble | sparingly soluble |
